The nature of data set [1]: Pharmacokinetic tests in male SD rats. The class given is in vivo. The conditions noted are these: oral gavage (po), 10 mg/kg, plasma; for AUC(0-inf) / AUC(0-t) / Cmax / MRT last / Tmax: rat. In a few lines: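 Fasted male SD rats (n=3) dosed 10 mg/kg by oral gavage as 1 mg/mL solution in 10% DMSO/90% 0.5% MC. Tail-vein EDTA plasma sampled 0.5–24 h, parent drug quantified by LC-MS/MS; AUC, T1/2, Cmax, Tmax by non-compartmental analysis.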

In data set [2] the target is EGFR in Baf3-19del-T790M-C797S (Homo sapiens, UniProt P00533, C797S/DEL746-750/T790M). The experiment in a line: EGFR PROTAC HTRF experiment (total EGFR degradation). The class given is cell-based. As to the method:
(§1) [table] Among them, B[…] -C797S (abbreviated as Baf3-DTC) is a stable Ba/F3 clone expressing exogenous EGFR gene bearing T790M, C797S and […] triple amino acid mutations, purchased from KYinno; Baf3-L858R-T790M - C797S (abbreviated as Baf3-LTC) is a stable Ba/F3 clone expressing exogenous EGFR gene bearing […], T790M, C797S triple mutations, purchased from KYinno. [table] [table] Dilutded Eu and d2 antibodies 2μl per well with detection buffer 20-fold. Then mixed the two antibody vials thoroughly. [table] Opened EnVision , locate the HTRF program, configured the board, and then read […]. The fitted curve, DC50 and Dmax of this compound could be generated using GraphPad Prism .

Data set [3] has as its target EGFR in Baf3-L858R-T790M-C797S (Homo sapiens, UniProt P00533, C797S/L858R/T790M). The description is as above. The class given is cell-based. As to the method:
as §1

[4] abbreviates: Baf3-DTC, incubated 16 hours, HTRF total EGFR; read-out: Baf3-DTC DC50.
Setting [5] is: Baf3-DTC, incubated 16 hours, HTRF total EGFR; read-out: Baf3-DTC Dmax.
Where [6] appears, read: Baf3-LTC, incubated 16 hours, HTRF total EGFR; read-out: Baf3-LTC DC50.
Setting [7] is: Baf3-LTC, incubated 16 hours, HTRF total EGFR; read-out: Baf3-LTC Dmax.

Where two headings read alike, the source gives them in different places.

Chain of EGFR in Baf3-19del-T790M-C797S (P00533 with tags, fused parts or gaps DEL746-750/T790M/C797S): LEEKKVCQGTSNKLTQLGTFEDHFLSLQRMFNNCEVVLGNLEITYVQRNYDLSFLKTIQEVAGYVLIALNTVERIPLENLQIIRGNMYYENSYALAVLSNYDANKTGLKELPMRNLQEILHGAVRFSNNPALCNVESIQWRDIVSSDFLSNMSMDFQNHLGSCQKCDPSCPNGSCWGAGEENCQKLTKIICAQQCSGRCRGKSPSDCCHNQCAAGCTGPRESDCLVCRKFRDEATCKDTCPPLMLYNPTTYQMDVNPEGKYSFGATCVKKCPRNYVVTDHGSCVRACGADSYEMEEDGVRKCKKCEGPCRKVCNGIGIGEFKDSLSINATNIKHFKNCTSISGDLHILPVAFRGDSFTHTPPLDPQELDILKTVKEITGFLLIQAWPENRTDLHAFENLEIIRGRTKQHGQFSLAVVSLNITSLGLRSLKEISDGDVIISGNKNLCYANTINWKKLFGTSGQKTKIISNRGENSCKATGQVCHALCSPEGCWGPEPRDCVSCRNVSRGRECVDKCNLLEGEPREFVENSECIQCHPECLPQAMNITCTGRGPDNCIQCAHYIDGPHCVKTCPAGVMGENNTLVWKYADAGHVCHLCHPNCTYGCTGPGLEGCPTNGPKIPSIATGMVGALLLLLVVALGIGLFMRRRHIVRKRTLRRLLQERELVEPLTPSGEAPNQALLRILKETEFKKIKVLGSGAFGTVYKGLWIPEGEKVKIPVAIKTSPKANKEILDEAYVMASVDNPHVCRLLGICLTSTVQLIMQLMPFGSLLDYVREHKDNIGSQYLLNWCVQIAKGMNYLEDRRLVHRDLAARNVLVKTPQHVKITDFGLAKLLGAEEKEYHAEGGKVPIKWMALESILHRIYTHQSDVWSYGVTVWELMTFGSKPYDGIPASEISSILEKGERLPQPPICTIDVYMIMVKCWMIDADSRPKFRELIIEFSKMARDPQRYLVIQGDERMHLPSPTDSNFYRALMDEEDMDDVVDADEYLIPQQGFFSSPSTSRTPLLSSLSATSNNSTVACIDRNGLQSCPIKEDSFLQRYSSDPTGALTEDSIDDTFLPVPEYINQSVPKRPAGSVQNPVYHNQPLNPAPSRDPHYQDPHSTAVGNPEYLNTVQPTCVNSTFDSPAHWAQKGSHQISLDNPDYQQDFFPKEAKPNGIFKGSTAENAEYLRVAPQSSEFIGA
Chain of EGFR in Baf3-L858R-T790M-C797S (P00533 25-1210 T790M/C797S/L858R): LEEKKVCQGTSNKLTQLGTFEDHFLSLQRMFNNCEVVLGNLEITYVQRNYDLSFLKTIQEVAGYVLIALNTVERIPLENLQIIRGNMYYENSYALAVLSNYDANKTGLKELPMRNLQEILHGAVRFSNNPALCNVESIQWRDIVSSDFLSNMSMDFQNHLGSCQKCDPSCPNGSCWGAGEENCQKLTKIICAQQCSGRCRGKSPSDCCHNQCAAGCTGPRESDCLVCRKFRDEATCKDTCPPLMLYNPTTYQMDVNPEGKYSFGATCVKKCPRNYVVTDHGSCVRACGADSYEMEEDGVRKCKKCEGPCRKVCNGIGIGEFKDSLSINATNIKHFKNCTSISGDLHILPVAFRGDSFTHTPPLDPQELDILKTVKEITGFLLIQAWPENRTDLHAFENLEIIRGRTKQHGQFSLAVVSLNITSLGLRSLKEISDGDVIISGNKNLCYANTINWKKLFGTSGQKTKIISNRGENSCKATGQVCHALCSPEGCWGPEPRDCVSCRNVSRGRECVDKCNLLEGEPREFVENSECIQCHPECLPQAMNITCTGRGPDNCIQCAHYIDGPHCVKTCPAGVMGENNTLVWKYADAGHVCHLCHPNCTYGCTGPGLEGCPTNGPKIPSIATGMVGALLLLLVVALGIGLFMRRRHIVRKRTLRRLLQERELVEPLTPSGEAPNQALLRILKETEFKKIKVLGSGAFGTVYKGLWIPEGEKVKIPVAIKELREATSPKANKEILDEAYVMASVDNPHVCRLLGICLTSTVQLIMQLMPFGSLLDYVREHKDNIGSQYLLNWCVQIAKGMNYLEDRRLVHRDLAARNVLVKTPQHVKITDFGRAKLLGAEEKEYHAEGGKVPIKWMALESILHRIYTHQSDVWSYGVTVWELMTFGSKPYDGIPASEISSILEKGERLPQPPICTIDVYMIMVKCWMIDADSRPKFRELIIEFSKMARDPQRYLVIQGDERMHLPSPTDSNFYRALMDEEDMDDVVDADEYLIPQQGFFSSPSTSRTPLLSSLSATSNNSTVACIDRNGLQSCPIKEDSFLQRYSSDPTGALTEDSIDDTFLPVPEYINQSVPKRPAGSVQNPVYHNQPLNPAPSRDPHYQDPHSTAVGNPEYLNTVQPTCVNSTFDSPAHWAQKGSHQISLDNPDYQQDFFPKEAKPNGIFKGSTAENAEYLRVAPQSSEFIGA

A word on the AUC(0-inf): it is total exposure, with the tail of the curve extrapolated. A lower AUC(0-inf) goes with less exposure. Broadly, the AUC(0-t) is the area under the concentration-time curve up to a stated or last time point. A low value points to less exposure. One may read the Cmax as the maximum level reached in the sampled fluid or tissue. As a reminder, the MRT last is a mean duration of stay, worked out from the concentration-time curve. Broadly, the Tmax is the time from dosing to the highest level. As a reminder, the DC50 is the midpoint of the concentration-degradation curve. One may read the Dmax as the greatest extent of degradation seen. In data set [1], `COc1cc(N2CCC(CN3CCN(c4ccc5c(c4)C(=O)N(C4CCC(=O)NC4=O)C5=O)CC3)CC2)c(-c2cnn(C)c2)cc1Nc1ncc(Br)c(Nc2ccc(C3CC3)cc2P(C)(C)=O)n1` (centres unmarked) [DZL-1, reference compound] registered an HL of 3.08 h, an area under the curve AUC(0-inf) of 8460 ng·h/mL, an AUC(0-t) of 8070 ng·h/mL and a peak concentration (Cmax) of 699 ng/mL. In data set [1], the MRT last came out at 6.11 h and the Tmax is 4 h. The DC50 in data set [2] (setting [4]) lay within 10 to 100 nM. The Dmax in data set [2] (setting [5]) fell in the range of 70 to 100%. Besides, the half-maximal degradation concentration (DC50) in data set [3] (setting [6]) is 10 to 100 nM. Also, in data set [3] (setting [7]), the maximal degradation (Dmax) is 70 to 100%.

For `CCc1cc(Nc2ncc(Cl)c(Nc3ccccc3C(=O)NC)n2)c(OC)cc1N1CCN(C(=O)CN2CCC(c3cc4c(cc3F)c(N3CCC(=O)NC3=O)nn4C)C(F)(F)C2)CC1` (centres unmarked) [TA-003], in data set [1], the HL is recorded as 3.22 h, the AUC(0-inf) turned out to be 3800 ng·h/mL, the AUC(0-t) amounted to 3770 ng·h/mL and the Cmax came to 441 ng/mL. In data set [1], the MRT last is 5.63 h and the Tmax came to 2 h. The 50% degradation concentration (DC50) in data set [2] (read-out: Baf3-DTC DC50; Baf3-DTC, incubated 16 hours, HTRF total EGFR) is 10 to 100 nM. Moreover, the Dmax in data set [2] (read-out: Baf3-DTC Dmax) was in the range of 70 to 100%. Also, in data set [3] (read-out: Baf3-LTC DC50; Baf3-LTC, incubated 16 hours, HTRF total EGFR), the 50% degradation concentration (DC50) fell in the range of 10 to 100 nM. Also, the greatest degradation seen (Dmax) in data set [3] (read-out: Baf3-LTC Dmax) was 70 to 100%.

In the case of `CCc1cc(Nc2ncc(Cl)c(Nc3ccccc3P(C)(C)=O)n2)c(OC)cc1N1CC2(CCN(C(=O)CN3CCC(c4cc5c(cc4F)c(N4CCC(=O)NC4=O)nn5C)C(F)(F)C3)CC2)C1` (centres unmarked) [TA-023], in data set [1], the HL is on record as 3.99 h, the area under the curve AUC(0-inf) turned out to be 3980 ng·h/mL, the area under the curve AUC(0-t) amounted to 3920 ng·h/mL and the Cmax was 580 ng/mL. In addition, in data set [1], the MRT last stood at 5.1 h and the Tmax is 2 h. For the same compound, the DC50 in data set [2] (setting [4]) was 10 to 100 nM. Further, the greatest degradation seen (Dmax) in data set [2] (setting [5]) was 70 to 100%. Further, the DC50 in data set [3] (setting [6]) fell in the range of 10 to 100 nM. Moreover, the greatest degradation seen (Dmax) in data set [3] (setting [7]) was in the range of 70 to 100%.

As for `CCc1cc(Nc2ncc(Cl)c(Nc3ccccc3P(C)(C)=O)n2)c(OC)cc1N1CCN(C(=O)CN2CCC(c3cc4c(cc3F)c(N3CCC(=O)NC3=O)nn4C)C(F)(F)C2)CC1` (centres unmarked) [TC-157], in data set [1], the HL was determined as 2.66 h, the total exposure AUC(0-inf) stood at 5800 ng·h/mL, the area under the curve AUC(0-t) is 7530 ng·h/mL and the highest concentration (Cmax) was 768 ng/mL. In addition, in data set [1], the MRT last was 5.52 h and the Tmax stood at 3.33 h. Moreover, the half-maximal degradation concentration (DC50) in data set [2] (setting [4]) is less than 10 nM. In addition, the Dmax in data set [2] (read-out: Baf3-DTC Dmax) lay in the range of 70 to 100%. For the same compound, in data set [3] (setting [6]), the DC50 was less than 10 nM. Also, in data set [3] (read-out: Baf3-LTC Dmax), the Dmax was in the range of 70 to 100%.

In data set [1], `CCc1cc(Nc2ncc(Cl)c(Nc3ccccc3P(C)(C)=O)n2)c(OC)cc1N1CCN(C(=O)CN2CCC(c3cc4c(cc3F)c(N3CCC(=O)NC3=O)nn4C)CC2)CC1` [TC-213] yielded an HL of 3.48 h, an AUC(0-inf) of 8150 ng·h/mL, an AUC(0-t) of 8070 ng·h/mL and a Cmax of 742 ng/mL. Moreover, in data set [1], the MRT last was 6.22 h and the Tmax came out at 4 h. Moreover, in data set [2] (setting [4]), the DC50 fell in the range of 10 to 100 nM. In data set [2] (setting [5]), the Dmax was 70 to 100%. The DC50 in data set [3] (setting [6]) fell in the range of 10 to 100 nM. In addition, in data set [3] (setting [7]), the Dmax fell in the range of 70 to 100%.

These data come from patent EP4813979A1, “COMPOUND FOR EGFR PROTEIN DEGRADATION AND USE THEREOF” (TYK Medicines, Inc., priority 2023, dated 2025).
